We go through 22 compounds from ChEMBL document CHEMBL1944545, “Discovery of novel selective inhibitors for EGFR-T790M/L858R” (Bioorg Med Chem Lett, 2012).

The target of assay [1] is Epidermal growth factor receptor (Homo sapiens, UniProt P00533). Put plainly: Inhibition of wild-type EGFR expressed using baculovirus expression system by ELISA. A general note: An ELISA detects its analyte on a solid surface through an enzyme-linked reagent.
The target in assay [2] is Epidermal growth factor receptor (Homo sapiens, UniProt P00533, L858R/T790M). The assay can be described thus: Inhibition of EGFR T790M/L858R mutant expressed using baculovirus expression system by ELISA.
In a further assay the test system is A549. The assay can be described thus: Antiproliferative activity against human A549 cells over-expressing EGFR gene after 72 hrs by SRB assay. In kind it is functional, cell-based. The conditions noted are these: A549, 72 h. Background: In SRB staining, fixed cells bind dye roughly in proportion to their protein.
The subject of a further assay is A-431. The assay can be described thus: Antiproliferative activity against human A431 cells over-expressing EGFR gene after 72 hrs by SRB assay. In kind it is functional, cell-based. The conditions noted are these: A-431, 72 h.
The next assay concerns NCI-H1975. The assay can be described thus: Antiproliferative activity against human NCI-H1975 cells over-expressing EGFR mutant gene after 72 hrs by SRB assay. In kind it is functional, cell-based. The settings on record: NCI-H1975, 72 h.

pIC50: −log10 of the molar value. Where only a bound is given, the exact number is not on record here.

As usually defined, the pIC50 is the IC50 on a negative log10 scale, so that one unit is a factor of ten. Low readings indicate a large IC50, high ones a small IC50.

Chain of Epidermal growth factor receptor (Homo sapiens, UniProt P00533, L858R/T790M) (P00533 25-1210 T790M/L858R limits assumed): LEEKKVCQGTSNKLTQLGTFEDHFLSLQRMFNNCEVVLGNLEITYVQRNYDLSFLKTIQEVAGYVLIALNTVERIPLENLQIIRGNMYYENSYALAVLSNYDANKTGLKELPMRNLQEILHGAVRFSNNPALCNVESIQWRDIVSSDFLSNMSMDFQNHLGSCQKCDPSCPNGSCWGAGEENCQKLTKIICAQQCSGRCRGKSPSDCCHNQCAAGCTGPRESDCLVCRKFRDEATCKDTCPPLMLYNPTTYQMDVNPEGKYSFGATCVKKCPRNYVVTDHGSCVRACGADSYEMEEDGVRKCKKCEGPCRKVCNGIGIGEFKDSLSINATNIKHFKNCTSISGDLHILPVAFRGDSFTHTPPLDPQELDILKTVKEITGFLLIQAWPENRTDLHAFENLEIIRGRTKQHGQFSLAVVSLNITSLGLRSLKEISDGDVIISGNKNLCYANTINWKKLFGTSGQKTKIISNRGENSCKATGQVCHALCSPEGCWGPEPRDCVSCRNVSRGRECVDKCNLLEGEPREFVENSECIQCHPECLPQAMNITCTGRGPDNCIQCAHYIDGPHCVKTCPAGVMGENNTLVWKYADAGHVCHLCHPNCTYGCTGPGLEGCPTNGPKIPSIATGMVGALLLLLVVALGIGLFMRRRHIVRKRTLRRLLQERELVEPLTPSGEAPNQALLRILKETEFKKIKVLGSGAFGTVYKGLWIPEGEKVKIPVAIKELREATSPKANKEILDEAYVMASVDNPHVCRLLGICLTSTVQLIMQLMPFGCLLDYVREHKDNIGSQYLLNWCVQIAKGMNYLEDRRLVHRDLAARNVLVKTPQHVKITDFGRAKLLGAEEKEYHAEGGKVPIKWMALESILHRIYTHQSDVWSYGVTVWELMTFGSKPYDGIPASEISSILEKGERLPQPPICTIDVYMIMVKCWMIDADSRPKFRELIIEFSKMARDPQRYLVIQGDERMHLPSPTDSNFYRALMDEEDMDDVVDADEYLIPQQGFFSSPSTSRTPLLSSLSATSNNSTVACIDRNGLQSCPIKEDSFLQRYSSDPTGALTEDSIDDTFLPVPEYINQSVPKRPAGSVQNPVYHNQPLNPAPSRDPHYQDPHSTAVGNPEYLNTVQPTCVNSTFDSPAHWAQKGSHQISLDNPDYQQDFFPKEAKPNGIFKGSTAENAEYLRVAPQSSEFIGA
Chain of Epidermal growth factor receptor (Homo sapiens, UniProt P00533) (P00533 whole entry): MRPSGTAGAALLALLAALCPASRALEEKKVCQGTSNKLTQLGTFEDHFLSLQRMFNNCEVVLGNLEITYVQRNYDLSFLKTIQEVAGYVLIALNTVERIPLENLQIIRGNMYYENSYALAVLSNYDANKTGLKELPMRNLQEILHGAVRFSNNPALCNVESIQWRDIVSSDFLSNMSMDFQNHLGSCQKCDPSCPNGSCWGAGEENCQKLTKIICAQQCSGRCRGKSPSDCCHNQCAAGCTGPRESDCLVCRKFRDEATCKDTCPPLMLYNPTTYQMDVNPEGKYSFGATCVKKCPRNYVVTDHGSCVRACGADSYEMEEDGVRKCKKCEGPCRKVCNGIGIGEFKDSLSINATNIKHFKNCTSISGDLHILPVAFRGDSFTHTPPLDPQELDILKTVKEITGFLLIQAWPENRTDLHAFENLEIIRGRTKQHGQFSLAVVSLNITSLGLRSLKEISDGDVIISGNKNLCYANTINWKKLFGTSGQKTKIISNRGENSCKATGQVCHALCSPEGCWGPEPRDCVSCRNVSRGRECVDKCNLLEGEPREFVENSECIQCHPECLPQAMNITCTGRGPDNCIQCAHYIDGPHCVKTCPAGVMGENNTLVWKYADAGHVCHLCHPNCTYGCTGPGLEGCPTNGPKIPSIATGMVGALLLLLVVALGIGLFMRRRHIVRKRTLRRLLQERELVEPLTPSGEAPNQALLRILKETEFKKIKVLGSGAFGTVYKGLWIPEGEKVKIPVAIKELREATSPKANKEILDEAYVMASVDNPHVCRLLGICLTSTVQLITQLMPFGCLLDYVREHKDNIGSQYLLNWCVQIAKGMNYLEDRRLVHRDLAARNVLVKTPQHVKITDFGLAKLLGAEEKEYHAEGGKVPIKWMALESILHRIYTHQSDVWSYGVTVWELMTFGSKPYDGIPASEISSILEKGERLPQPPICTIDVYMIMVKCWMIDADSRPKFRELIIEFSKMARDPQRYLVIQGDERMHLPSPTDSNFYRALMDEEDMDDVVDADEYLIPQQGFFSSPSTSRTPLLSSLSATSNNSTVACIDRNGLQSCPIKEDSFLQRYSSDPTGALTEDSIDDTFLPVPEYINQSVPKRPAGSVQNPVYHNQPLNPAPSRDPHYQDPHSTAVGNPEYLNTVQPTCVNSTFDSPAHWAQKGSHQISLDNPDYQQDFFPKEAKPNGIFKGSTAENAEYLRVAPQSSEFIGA

Take `CNc1nc(N/N=C\c2ccc(OC)cc2)nc(Nc2ccccc2)n1`: the negative-log IC50 (pIC50) in assay [1] is < 4.00; in assay [2], 4.51; in the assay with A549, 4.11; in the assay on A-431, 4.25; in the assay on NCI-H1975, < 4.00.
With `Cc1ccc(-n2c(SCC(=O)Nc3ccccc3Cl)nc3sc(C)c(C)c3c2=O)cc1`, the pIC50 in assay [1] was 4.09; in assay [2], < 4.00; in the assay with A549, 4.03; in the assay with A-431, < 4.00; in the assay on NCI-H1975 it was 4.27.
For `CC(=O)Nc1ccc(S(=O)(=O)Nc2nc3ccccc3nc2Nc2ccc(C(=O)O)cc2)cc1`, the pIC50 in assay [1] is 4.45; in assay [2] it was 4.63; in the assay on A549, < 4.00; with A-431 it was < 4.00; with NCI-H1975, < 4.00.
On to `COc1nc(NCCN2CCOCC2)nc(Nc2ccc(Cl)cc2)n1`, for which the pIC50 in assay [1] was < 4.00; in assay [2] it was 5.82; in the assay on A549, < 4.00; with A-431, < 4.00; in the assay with NCI-H1975, < 4.00.
Turning to `C=CC(=O)Nc1ccc2ncnc(Nc3ccc(OCc4cccc(F)c4)c(Cl)c3)c2c1` [ALLITINIB], the pIC50 with A549 is 5.17; in the assay on A-431, 6.70; with NCI-H1975 it was 6.15.
In the case of `O=C(NNC(=O)c1ncc(Cc2ccsc2)s1)Nc1ccccc1`, the pIC50 in assay [1] is < 4.00; in assay [2] it was 4.39; with A549 it was < 4.00; in the assay on A-431 it was < 4.00; in the assay with NCI-H1975, < 4.00.
For the compound `COc1cccc(Nc2ccnc(Nc3cccc(OC)c3)n2)c1`, the negative-log IC50 (pIC50) in assay [1] is 5.11; in assay [2], 4.44; in the assay with A549 it was 5.47; in the assay on A-431, 6.10; in the assay on NCI-H1975, 5.39.
For `CN(C)c1nc(N/N=C/c2cc(Br)c(O)c(Br)c2O)nc(Nc2ccc(F)cc2)n1`, the pIC50 in assay [1] was 4.59; in assay [2], 5.19; in the assay on A549 it was 5.11; in the assay on A-431, 5.10; in the assay with NCI-H1975, 4.98.
For the compound `CCc1ccc(C(=O)NNc2ccc(Cl)cc2C)cc1`, the pIC50 was < 4.00 in assay [1]; 4.18 in assay [2]; < 4.00 with A549; < 4.00 in the assay with A-431; < 4.00 in the assay on NCI-H1975.
With `O=C(CSc1nc(O)nc(-c2ccc(Cl)cc2)n1)Nc1ccc(Cl)cc1`, the pIC50 in assay [1] was < 4.00; in assay [2], 4.89; in the assay on A549 it was 4.37; with A-431, < 4.00; with NCI-H1975 it was < 4.00.
For `CCOC(=O)c1ccc(NC(=O)CSc2nnc(CNc3ccc(OC)cc3)n2-c2ccccc2)cc1`, the pIC50 in assay [1] was 4.03; in assay [2], < 4.00; with A549, < 4.00; in the assay on A-431 it was 4.25; in the assay with NCI-H1975 it was < 4.00.
Consider `Cn1c2ccccc2n2c(=S)[nH]nc12`, for which the pIC50 in assay [1] was < 4.00; in assay [2] it was 4.66; in the assay with A549, < 4.00; in the assay with A-431, < 4.00; in the assay on NCI-H1975 it was < 4.00.
With `C=CCn1c(N)c(C(=O)N/N=C/c2cccs2)sc1=S`, the pIC50 in assay [1] is < 4.00; in assay [2] it was 4.18; in the assay with A549 it was < 4.00; with A-431 it was < 4.00; in the assay on NCI-H1975 it was < 4.00.
With `COc1cccc2c1C(=O)c1c(O)ccc(O)c1C2=O`, the pIC50 in assay [1] was 5.37; in assay [2] it was 4.75; with A549 it was < 4.00; in the assay on A-431, 4.15; in the assay on NCI-H1975, 4.05.
As for `CNc1nc(N/N=C/c2ccc(O)cc2)nc(Nc2ccccc2)n1`, the pIC50 in assay [1] is < 4.00; in assay [2], 4.51; in the assay with A549, < 4.00; in the assay with A-431, 4.33; in the assay on NCI-H1975, < 4.00.
For `COc1ccccc1Nc1ccnc(Nc2ccccc2OC)n1`, the pIC50 in assay [1] is 4.04; in assay [2], < 4.00; with A549, 4.29; in the assay with A-431, 4.45; with NCI-H1975 it was 4.42.
Regarding `Cc1c(Cc2ccccc2)sc(NCC(=O)COc2ccc3ccccc3c2)c1C(N)=O`, the pIC50 is < 4.00 in assay [1]; 4.61 in assay [2]; 4.21 in the assay on A549; 4.20 in the assay with A-431; 4.29 in the assay with NCI-H1975.
As to `COc1ccc(Nc2nc(Cl)nc(NCc3ccco3)n2)cc1`, the pIC50 was < 4.00 in assay [1]; 4.68 in assay [2]; < 4.00 in the assay on A549; < 4.00 in the assay with A-431; < 4.00 in the assay with NCI-H1975.
In the case of `O=C(Nc1cccc(Br)c1)c1c(O)c2ccccc2[nH]c1=O`, the pIC50 was < 4.00 in assay [1]; 4.25 in assay [2]; < 4.00 in the assay on A549; < 4.00 in the assay with A-431; < 4.00 in the assay with NCI-H1975.
Consider `Cn1cc(NC(=O)/C=N/O)c(=O)n1-c1ccccc1`, for which the pIC50 in assay [1] is < 4.00; in assay [2] it was 5.05; in the assay with A549, < 4.00; in the assay on A-431, < 4.00; in the assay on NCI-H1975, < 4.00.
As to `O=c1c2c(-c3ccccc3)c3c(nc2nc2[nH]nc(S)n12)-c1ccccc1CC3`, the pIC50 in assay [1] was 4.07; in assay [2] it was < 4.00; with A549 it was < 4.00; with A-431 it was < 4.00; in the assay with NCI-H1975, < 4.00.
Consider `COc1ccc2c3oc(=O)cc(O)c3c(=O)n(C)c2c1`, for which the pIC50 in assay [1] was 4.12; in assay [2] it was 4.19; in the assay on A549, 4.14; with A-431, < 4.00; with NCI-H1975, < 4.00.
